Like-named read-outs stand apart in the source and are kept apart here.
Assays:
[1] = biological target: Factor XIa (Homo sapiens, UniProt P03951); experiment: Factor XIa inhibition assay utilizing a fluorophore-quencher pair peptide substrate (FLINT); assay type: biochemical; conditions: 30 min preincubation
Description: Biological Example 1: Factor XIa Inhibition Assay Utilizing a Fluorophore-Quencher Pair Peptide Substrate
A fluorescence intensity (FLINT) based assay was used to monitor inhibition of Factor XIa. The peptide substrate, 5Fam-KLTRAETV-K5Tamra (purchased from New England Peptide) was chosen based on the […]. Conversion of zymogen […]. The custom peptide used in this assay was based on the Arg146 cleavage site of FXI. The peptide substrate was designed with a fluorophore-quencher pair, where the fluorescence is quenched until FXIa cleaves the 8-mer peptide after the Arg residue. The substrate KM was fit to a substrate inhibition model whereby kcat=0.86 s^−1, KM=12.4 μM, Ki=61.6 μM with an enzymatic efficiency, and kcat/KM=69523 M^−1s^−1.
The Factor XIa FLINT assay was used with the following 5Fam-KLTRAETV-K5Tamra assay buffer: 50 mM Tris, pH 7.5, 100 mM NaCl, 5 mM CaCl2, 0.1 mg/mL BSA, 0.03% CHAPS. Assay buffer was prepared by mixing all ingredients fresh. 5Fam-KLTRAETV-K5Tamra peptide substrate was first prepared at 10 mM in 100% DMSO, then diluted to 3 mM in 100% DMSO. Assay buffer was then added directly to the 3 mM stock of substrate to prepare the 30 μM 2× working concentration (15 μM final concentration). The 2× Factor XIa stock solution was prepared by diluting 6.562 μM stock in 1× assay buffer for a […].
Test compound(s) were run in an 11-point, 3-fold serial dilution with a final top compound concentration of 100 nM. Final DMSO in assay was 2%. FXIa was preincubated with compound for 30-minutes and then substrate was added to initiate the reaction. The assay was run with either end point (EP) reads at 30 min or kinetic (KIN) reads at 5 min intervals over 30 minutes. The time course was linear using 100 μM FXIa greater than 30 minutes. More specifically, the assay was run as follows: • 100 nL of 0.01 mM test compound was dispensed into black 384-well non-binding Greiner BioOne 784900 plate for 0.1 μM final concentration; • 5 μL of 1× assay buffer was dispensed to column 24 (low control) and 5 μL 2× Factor XIa solution was dispensed to columns 1-23 (column 23 high control); • the plate was centrifuged with a “cover” plate at 500 rpm for 1 min • the plate was pre-incubated for 30 minutes at room temperature with plate covered; • 5 μL of 2× 5Fam-KLTRAETV-K5Tamra peptide substrate was dispensed into the entire plate, columns 1-24; • the plate was centrifuged with a “cover” plate at 500 rpm for 1 min; • the plate was read monitoring fluorescence intensity on the BMG PHERAStar at room temperature, using fluorescence module 485 nm/520 nm.
(§1) Percent inhibition (IC50) curves were generated per compound tested, and data was analyzed using a 4-parameter logistic fit using GeneData Screener. The relative fluorescence unit (RFU) values were normalized to percent inhibition using the following equation:
[formula] • where LC—low control=mean signal of no Factor XIa or 100% inhibition of Factor XIa; HC—high control=mean signal of Factor XIa+5Fam-KLTRAETV-K5Tamra peptide substrate with DMSO only.
(§2) An 11-point dose response curve for the test compound(s) was generated using GENDATA to determine IC50 value based on the following equation:
(§3) [formula] • where Y is the % inhibition in the presence of X inhibitor concentration, Top=high control=mean signal of Factor XIa+5Fam-KLTRAETV-K5Tamra peptide substrate with DMSO only; Bottom=low control—mean signal of no Factor XIa or 100% inhibition of Factor XIa; HillSlope—Hill coefficient; and IC50=concentration of compound with 50% inhibition in relation to top/high control.
Representative compounds of formula (I) of the present invention were tested according to the procedure described in Biological Example 1 and Biological Example 2 above, with results as listed in Table 3, below. […]

[2] = biological target: human plasma kallikrein (Homo sapiens, UniProt P03952); experiment: Kallikrein inhibition assay utilizing a quenched AMC peptide substrate (FLINT); assay type: biochemical; conditions: 30 min preincubation
Description: Biological Example 2: Kallikrein Inhibition Assay Utilizing a Quenched AMC Peptide Substrate
A fluorescence intensity (FLINT) based assay was used to monitor inhibition of human plasma kallikrein. The peptide substrate, Z-Gly-Pro-Arg-AMC (Purchased from Bachem; Catalog #I-1150) was chosen based on its relatively low KM for kallikrein which enables running the assay at lower substrate concentrations to control background fluorescence. The kinetic parameters for this substrate were determined by fitting titration data to the Michaelis-Menten equation yielding a KM=40 μm, kcat=0.76 s^−1, and kcat/KM=18932 M^−1s^−1.
The Kallikrein FLINT assay was used with the following Z-Gly-Pro-Arg-AMC assay buffer: 50 mM Tris, pH 7.5, 100 mM NaCl, 5 mM CaCl2, 0.1 mg/mL BSA, 0.03% CHAPS. Assay buffer was prepared by mixing all ingredients fresh. 2× Z-Gly-Pro-Arg-AMC peptide substrate was prepared by diluting 10 mM stock into 1× assay buffer for a 100 μM working concentration (50 μM final concentration). The 2× kallikrein stock solution was prepared by diluting 14.76 μM stock in 1× assay buffer for a 4 nM working stock solution (2 nM final concentration).
Test compound(s) were run in an 11-point, 3-fold serial dilution with a final top compound concentration of 1 μM. Final DMSO in assay was 2%. Plasma kallikrein was pre-incubated for 30-minute with compound and then 50 μM substrate was added to initiate the reaction. The assay was run with either end point (EP) reads at 30 min or kinetic (KIN) reads at 5 min intervals over 30 minutes. The time course was linear using 2 nM kallikrein greater than 30 minutes. More specifically, the assay was run as follows: • 100 nL of 0.1 mM test compound was dispensed into black 384-well non-binding Greiner BioOne 784900 plate for 1 μM final concentration; • 5 μL of 1× assay buffer was dispensed to columns 24 (low control) and 5 μL 2× human kallikrein enzyme solution was dispensed to columns 1-23 (column 23 high control); • the plate was centrifuged with a “cover” plate at 500 rpm for 1 min • the plate was pre-incubated for 30 minutes at room temperature with plate covered; • 5 μL of 2× Z-Gly-Pro-Arg-AMC peptide substrate was dispensed into the entire plate, columns 1-24; • the plate was centrifuged with a “cover” plate at 500 rpm for 1 min; • the plate was read monitoring fluorescence intensity on the BMG PHERAStar at room temperature, using fluorescence module 340 nm/440 nm.
as §1
% inhibition=((HC−LC)−(compound−LC)/(HC−LC))*100 • where LC—low control=mean signal of human kallikrein enzyme or 100% inhibition of human kallikrein enzyme; HC—high control=mean signal of Factor XIa+Z-Gly-Pro-Arg-AMC peptide substrate with DMSO only.
as §2
as §3, with “Y=Bottom+(Top−Bottom)/(1+10^((log IC50−X)*HillSlope))” for “[formula]”, “human kallikrein enzyme+Z-Gly-Pro-Arg-AMC” for “Factor XIa+5Fam-KLTRAETV-K5Tamra”, “human kallikrein enzyme” for “Factor XIa”, “human kallikrein enzyme;” for “Factor XIa;”
Representative compounds of formula (I) of the present invention were tested according to the procedure described in Biological Example 1 and Biological Example 2 above, with results as listed in Table 3, below. Results listed in the (ER) column were measured using endpoint reads where a single fluorescence reading was measured for each well at a 30 min timepoint. […]

[3] = kinetic reads at 5 min intervals over 30 min, read-out: FXIa (KIN) IC50
[4] = kinetic reads at 5 min intervals over 30 min, read-out: Kallikrein (KIN) IC50

human plasma kallikrein, sequence (P03952 391-638 limits assumed): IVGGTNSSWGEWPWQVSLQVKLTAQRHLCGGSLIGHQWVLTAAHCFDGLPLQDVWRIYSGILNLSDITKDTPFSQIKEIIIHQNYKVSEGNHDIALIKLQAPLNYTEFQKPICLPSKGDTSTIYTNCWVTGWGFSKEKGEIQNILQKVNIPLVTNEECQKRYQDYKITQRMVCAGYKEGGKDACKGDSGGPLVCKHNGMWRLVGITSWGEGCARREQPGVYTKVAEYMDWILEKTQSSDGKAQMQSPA
human plasma kallikrein, sequence (P03952 20-390 partner limits assumed): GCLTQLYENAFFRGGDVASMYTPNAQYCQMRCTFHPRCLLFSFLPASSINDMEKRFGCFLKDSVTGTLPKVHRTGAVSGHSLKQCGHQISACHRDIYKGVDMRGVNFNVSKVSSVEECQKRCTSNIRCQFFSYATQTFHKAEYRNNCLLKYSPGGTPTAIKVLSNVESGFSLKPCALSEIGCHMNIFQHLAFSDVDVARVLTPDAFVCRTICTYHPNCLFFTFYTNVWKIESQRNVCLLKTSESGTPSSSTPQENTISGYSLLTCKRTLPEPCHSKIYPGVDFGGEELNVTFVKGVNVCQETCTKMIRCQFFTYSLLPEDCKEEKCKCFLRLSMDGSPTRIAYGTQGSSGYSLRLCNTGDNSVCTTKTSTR
Factor XIa, sequence (P03951 388-625 limits assumed): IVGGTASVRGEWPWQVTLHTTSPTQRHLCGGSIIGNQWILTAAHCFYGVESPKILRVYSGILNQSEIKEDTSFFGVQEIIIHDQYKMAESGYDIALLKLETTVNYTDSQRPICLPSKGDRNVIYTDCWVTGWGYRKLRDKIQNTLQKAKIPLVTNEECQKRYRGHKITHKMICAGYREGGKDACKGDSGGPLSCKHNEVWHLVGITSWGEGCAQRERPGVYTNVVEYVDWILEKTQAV
Factor XIa, sequence (P03951 19-387 partner limits assumed): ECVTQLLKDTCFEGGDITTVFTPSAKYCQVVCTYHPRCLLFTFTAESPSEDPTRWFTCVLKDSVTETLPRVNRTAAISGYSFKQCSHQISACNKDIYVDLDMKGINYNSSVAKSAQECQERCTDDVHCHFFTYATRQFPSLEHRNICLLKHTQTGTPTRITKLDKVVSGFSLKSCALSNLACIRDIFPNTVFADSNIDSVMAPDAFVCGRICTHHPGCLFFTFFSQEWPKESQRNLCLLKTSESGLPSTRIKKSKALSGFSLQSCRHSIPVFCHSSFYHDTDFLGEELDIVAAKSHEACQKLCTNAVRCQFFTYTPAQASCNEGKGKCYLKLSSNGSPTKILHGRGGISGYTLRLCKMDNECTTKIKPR

| Structure (SMILES) | IC50 [1, 3] | IC50 [2, 4] | IC50 ([1]; end point read at 30 min, read-out: FXIa (EP) IC50) | IC50 ([2]; end point read at 30 min, read-out: Kallikrein (EP) IC50) |
| --- | --- | --- | --- | --- |
| [O-][n+]1cc(-c2c(-n3cc(C(F)(F)F)nn3)ccc(Cl)c2F)ccc1[C@@H](CCOC(F)F)n1cnc(-c2ncnn2C(F)F)c1 [M7, (R)-5-(3-Chloro-2-fluoro-6-(4-(trifluoromethyl)-1H-1,2,3-triazol-1-yl)phenyl)-2-(3-(difluoromethoxy)-1-(4-(1-(difluoromethyl)-1H-1,2,4-triazol-5-yl)-1H-imidazol-1-yl)propyl)pyridine 1-oxide] | ~0.033 µM | 0.338 µM |  |  |
| O=C(O)c1ccc(-c2cn(C(CC3CC3)c3ccc(-c4cc(Cl)ccc4-n4cnnn4)c[n+]3[O-])nn2)cc1 (stereo not drawn) [T1, 2-(1-(4-(4-Carboxyphenyl)-1H-1,2,3-triazol-1-yl)-2-cyclopropylethyl)-5-(5-chloro-2-(1H-tetrazol-1-yl)phenyl)pyridine 1-oxide] |  |  | 0.0016 µM | 0.0835 µM |
| COC(=O)Nc1ccc(-c2cn(C(CC3CC3)c3ccc(-c4c(-n5cnnn5)ccc(Cl)c4F)c[n+]3[O-])nn2)cc1 (single isomer, unassigned) [T4, (S*)-5-(3-Chloro-2-fluoro-6-(1H-tetrazol-1-yl)phenyl)-2-(2-cyclopropyl-1-(4-(4-((methoxycarbonyl)amino)phenyl)-1H-1,2,3-triazol-1-yl)ethyl)pyridine 1-oxide] | 0.001 µM | 0.0149 µM |  |  |
